Values of other authors as cited in US20240000780A1, “PED5 INHIBITOR SEMI-SOLID COMPOSITIONS AND METHODS OF MAKING AND USING THEREOF” (Seattle Gummy Company, priority 2021, published 2024).

Settings: ranking among alpha, beta, gamma cyclodextrins

stability of complex formed with tadalafil | Structure (SMILES)
least stable | OC[C@H]1O[C@@H]2O[C@H]3[C@H](O)[C@@H](O)[C@@H](O[C@H]4[C@H](O)[C@@H](O)[C@@H](O[C@H]5[C@H](O)[C@@H](O)[C@@H](O[C@H]6[C@H](O)[C@@H](O)[C@@H](O[C@H]7[C@H](O)[C@@H](O)[C@@H](O[C@H]1[C@H](O)[C@H]2O)O[C@@H]7CO)O[C@@H]6CO)O[C@@H]5CO)O[C@@H]4CO)O[C@@H]3CO [alpha, alpha-cyclodextrin]
most stable complex | OC[C@H]1O[C@@H]2O[C@H]3[C@H](O)[C@@H](O)[C@@H](O[C@H]4[C@H](O)[C@@H](O)[C@@H](O[C@H]5[C@H](O)[C@@H](O)[C@@H](O[C@H]6[C@H](O)[C@@H](O)[C@@H](O[C@H]7[C@H](O)[C@@H](O)[C@@H](O[C@H]8[C@H](O)[C@@H](O)[C@@H](O[C@H]9[C@H](O)[C@@H](O)[C@@H](O[C@H]1[C@H](O)[C@H]2O)O[C@@H]9CO)O[C@@H]8CO)O[C@@H]7CO)O[C@@H]6CO)O[C@@H]5CO)O[C@@H]4CO)O[C@@H]3CO [gamma, gamma-cyclodextrin]
